From paper PMC7780097, “Asn‐linked N–acetylglucosamine of the amylin receptor 2 extracellular domain enhances peptide ligand affinity” (FEBS Open Bio, 2020)

Legend:
full‐length CTR = conditions: cited from earlier work
From the text: The calcitonin receptor (CTR) is a class B GPCR for peptide hormone calcitonin that regulates calcium homeostasis. CTR has an ECD with four N‐glycosylation sites: N28, N73, N125, and N130. […] My colleagues and I reported that N‐glycosylation of CTR enhanced salmon calcitonin (sCT) affinity for CTR ECD by sevenfold and that the asp ...

[1] = target: T1, glycosylated CTR ECD[N130D] (Homo sapiens, UniProt P30988, N130D); experiment: FP peptide binding assay, glycosylated CTR ECD[N130D] with or without PNGase F treatment; conditions: heat‐inactivated PNGase F vs No PNGase F; Fig. 2A
T1 sequence (P30988 38-141 N130D): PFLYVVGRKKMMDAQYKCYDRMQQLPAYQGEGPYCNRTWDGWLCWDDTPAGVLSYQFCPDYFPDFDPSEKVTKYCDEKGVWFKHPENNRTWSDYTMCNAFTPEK
Description: (§1) pHLsec‐based vectors were used to obtain glycosylated CTR ECD from HEK293S GnTI^− cells as a secreted protein. Maltose‐binding protein (MBP) was fused to the CTR ECD to increase initial protein expression and purification.
(§2) MBP‐TEV cleavage site‐CTR ECD WT was expressed from HEK293S GnTI^− cells for 3 days after plasmid transfection with polyethyleneimine (PEI). All protein purification steps were performed at 4 °C, otherwise noted. The expressed protein was purified with immobilized Ni metal affinity chromatography (IMAC). The peak fractions were pooled and incubated with 1 : 5 ratio TEV protease (w/w, TEV protease: protein) for 6 h at 20 °C. The reaction mixture was spin‐concentrated (MWCO 10 kDa) and loaded to size‐exclusion chromatography (SEC). The fractions with expected CTR ECD WT molecular weight were collected, spin‐concentrated, and used for PNGase F reaction and following peptide binding assay. […]
(§3) The procedure of fluorescence polarization (FP) peptide binding assay was previously described [4]. FITC‐sCT(22–32), FITC‐AC413(6–25), and FITC‐AM(37–52)[S45W/Q50W] were used as fluorescence‐labeled peptide probes. […] A PolarStar Omega plate reader (BMG Labtech, Cary, NC, USA) or a SpectraiD5 (Molecular Devices, San Jose, CA, USA) was used to measure FP. Background‐subtracted fluorescence intensity was used to calculate anisotropy.

[2] = system: glycosylated CTR ECD[N130D]; experiment: as above; conditions: PNGase F treatment vs No PNGase F treatment; Fig. 2A
Description: as §1, §2, §3

CTR ECD = conditions: cited from earlier work
From the text: The calcitonin receptor (CTR) is a class B GPCR for peptide hormone calcitonin that regulates calcium homeostasis. CTR has an ECD with four N‐glycosylation sites: N28, N73, N125, and N130. […] Unexpectedly, the crystal structures of Endo H‐treated/Asn‐linked GlcNAc‐containing CTR ECD were almost identical to the structure of glycan‐free CTR ECD with a subtle structural difference. Direct interaction between the Asn‐linked GlcNAc and peptide hormone sCT was not found in the crystal structures ruling out the hypothesis of direct interaction between them. We also examined whether CTR ECD residues near the Asn‐linked GlcNAc of N130 medi ...

CTR = system: CTR; parameters: method as in PMID 15692146; conditions: cited from earlier work
[3] = target: RAMP2 ECD:CTR ECD complex (Endo H‐treated CTR ECD WT) (Homo sapiens, UniProt O60895+P30988); experiment: FP peptide binding assay, RAMP2 ECD 100 μM coincubation with Endo H-treated CTR ECD WT (AMY2 ECD); conditions: Discussion summary of Fig. 4B
Sequence of RAMP2 ECD:CTR ECD complex (Endo H‐treated CTR ECD WT) (P30988 38-141): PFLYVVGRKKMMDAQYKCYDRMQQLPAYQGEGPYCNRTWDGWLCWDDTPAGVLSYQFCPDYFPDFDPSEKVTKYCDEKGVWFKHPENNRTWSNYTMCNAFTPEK
Sequence of RAMP2 ECD:CTR ECD complex (Endo H‐treated CTR ECD WT) (O60895 55-140): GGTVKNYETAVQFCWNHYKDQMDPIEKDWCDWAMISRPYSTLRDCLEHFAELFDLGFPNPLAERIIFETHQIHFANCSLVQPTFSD
Description: The expression and purification procedure of Endo H‐treated CTR ECD WT and N130D was previously reported. […] After TEV protease reaction, N‐glycans of the protein were trimmed with 1 : 10 ratio Endo H (w/w, Endo H : protein) overnight at 4 °C, while dialyzing to 25 mM MOPS (pH 6.5) and 150 mM NaCl. Next day, the pH was increased to pH 7.5 and the protein was purified with IMAC and following SEC. The final peak fractions were dialyzed to storage buffer and stored at −80 °C until use.
The expression and purification of glycan‐free RAMP2 ECD were previously reported except for using RAMP2.55‐140 instead of RAMP2.36‐140 [15]. Briefly, MBP‐Thrombin cleavage site‐hRAMP2.55‐140‐H6 was expressed in the E. coli strain Origami B DE3. The cells were lysed by sonication and spun down by centrifugation. The supernatant was purified with IMAC and following amylose affinity chromatography. Human α‐thrombin was used to cleave out MBP, and the reaction mixture was loaded to IMAC to remove untagged MBP and thrombin. The RAMP2 ECD was further purified with SEC, and the peak fractions were dialyzed to storage buffer and stored at −80 °C until use. RAMP2 ECD without an MBP‐tag was also purified as follows. hRAMP2.55‐140‐H6 was expressed in the E. coli strain Origami B DE3. The bacterial cells were lysed by sonication using Bioruptor® standard (Diagenode Inc., Denville, NJ, USA). […]

AMY = system: AMY; parameters: method as in PMID 15692146; conditions: cited from earlier work
[4] = by the Asn‐linked GlcNAc of CTR N130

salmon calcitonin [sCT]
affinity, effect of N‐glycosylation of CTR ECD N130 (full‐length CTR): enhanced
effect of heat‐inactivated PNGase F on affinity [1]: did not change
fold decrease in affinity [2]: 1.7 fold
fold enhancement of affinity by N‐glycosylation (CTR ECD; N‐glycosylation of CTR): sevenfold
decrease of dissociation rate (CTR ECD; [4]): twofold
fold affinity enhancement (CTR ECD; [4]): sixfold
increase of association rate (CTR ECD; [4]): threefold
agonist activity (CTR): high affinity agonist
sCT affinity for AMY2 ECD, effect of the Asn‐linked GlcNAc of CTR N130 [3]: increased
agonist activity (AMY): high affinity agonist
